Measured values: patent publication US20230345990A1, “PROCESS FOR PRODUCTION OF CONCENTRATES OF CHELATED MINERALS WITH SOYBEAN AMINO ACIDS AND/OR SOYBEAM PROTEIN, AND RELATED PRODUCT” (Yessinergy Holding S.A., priority 2021, published 2023)

What was measured:
Assay type in all cases: in vivo, broilers (Cobb 500 male chicks)
[1] = Zn balance in broilers (Zn in excreta, retained Zn)
Experimental: (§1) An experiment was developed with the purpose of investigating the effect of providing six different sources of Zn, at two levels of supplementation, in diets based on corn, soybean bran and phytase, with respect to performance and balance of Zn in broilers.
(§2) Feed and water were freely provided throughout an experimental period from 1 to 42 days. The shed room temperature was maintained using 250 Watt infrared lamps and curtains on the sides of the shed. Light was provided for 22 hours/day in a scheme of 12 hours of natural light and 10 hours of artificial light. 2,400 lineage Cobb 500 male chicks were used, distributed in a randomized block design housed on the floor in a shed divided into 120 boxes of 1.0×2.0 meters (3,3×6.6 ft), with reused wood shavings bed, for the purpose of increasing the health challenge of birds.
(§3) The birds were randomly distributed in a 6×2 factorial arrangement with six different sources of Zn and two levels of Zn (40 and 80 mg/kg), totaling 12 treatments with 10 repetitions and 20 animals per box (this being considered one experimental unit).
At 33 days of age, excreta were collected for 24 hours by placing a plastic canvas on the floor of each box to determine Zn content (mg/kg of dry matter in excreta), retained Zn (consumed mg minus excreted mg), and Zn balance (retained Zn/consumed Zn x 100).

[2] = Broiler performance (feed intake, weight gain, feed conversion) with different Zn sources
Source text: as §1
The experimental feeds used for the initial phase (1 to 21 days) and for growth (21 to 42 days) were formulated based on corn, soybean bran and phytase, following the recommendations proposed by Rostagno et al. (2017) for each phase.
Feed and water were freely provided throughout an experimental period from 1 to 42 days. The shed room temperature was maintained using 250 Watt infrared lamps and curtains on the sides of the shed. Light was provided for 22 hours/day in a scheme of 12 hours of natural light and 10 hours of artificial light. 2,400 lineage Cobb 500 male chicks were used, distributed in a randomized block design housed on the floor in a shed divided into 120 boxes of 1.0×2.0 meters (3,3×6.6 ft), with reused wood shavings bed, for the purpose of increasing the health challenge of birds. […]
The parameters of performance evaluated were feed intake (FI, kg/bird), weight gain (WG, kg/bird), feed conversion (FC, kg/kg).

[3] = Foot Pad Lesions (FPL) score in broilers at 42 days
Experimental: as §1, §2, §3
At 42 days of age, during individual weighing of the birds, the quality of the foot pad was determined, using the Foot Pad Lesions (FPL) score according to Berg (1998) and Van Ham et al. (2019), wherein both foot pads of all animals in the experiment were evaluated. Score 0 was given for cushions without any injuries, 1 for discolored cushions but without deep injuries, and score 2 for cushions with deep injuries (ulcers, blisters, etc.). As this is a subjective fact, only one person was responsible for the assessment of the foot pad score. The Injury Score for each experimental unit was calculated according to the following equation, with FPL index varying from 0 to 200 (all birds having score 2).

[4] = level of zinc 40 mg/kg, 1 to 42 days
[5] = level of zinc 80 mg/kg, 1 to 42 days

In the case of `O=S(=O)([O-])[O-].[Zn+2]` [SF, ZnSO4], the “Percentage of Retained Zinc” value ([1]; level of zinc 40 mg/kg) was 19.52%, the “Zinc Excretion” value ([1]; level of zinc 40 mg/kg, excreta collected 24 h) was 10.26 mg/bird and the “Percentage of Retained Zinc” value ([1]; level of zinc 80 mg/kg) was 47.23%. The “Zinc Excretion” value ([1]; level of zinc 80 mg/kg, excreta collected 24 h) was 9.17 mg/bird, the “Percentage of Retained Zinc” value ([1]; mean of 40 and 80 mg/kg) was 33.4% and the “Zinc Excretion” value ([1]; mean of 40 and 80 mg/kg) was 9.7 mg/bird. For the same molecule, the “Feed Conversion” value ([2]; level of zinc 40 mg/kg) was 1.52 kg consumption/kg, the “Feed Consumption” value [2, 4] was 4.81 kg/bird and the “Weight Gain” value [2, 4] was 3.17 kg/bird. The “Feed Conversion” value ([2]; level of zinc 80 mg/kg) was 1.51 kg consumption/kg, the “Feed Consumption” value [2, 5] was 4.73 kg/bird and the “Weight Gain” value [2, 5] was 3.14 kg/bird. For the same molecule, the “Feed Conversion” value ([2]; level of zinc 100 mg/kg, trend based on results from 40 to 80 ppm of Zn) was 1.52 kg consumption/kg, the “Feed Conversion” value ([2]; mean) was 1.51 ab kg consumption/kg and the “Feed Consumption” value ([2]; mean of 40 and 80 mg/kg) was 4.77 kg/bird. The “Weight Gain” value ([2]; mean of 40 and 80 mg/kg) was 3.16 kg/bird, the “Foot pad lesions % (42 days)” value ([3]; level of zinc 40 mg/kg) was 18.98% and the “Foot pad lesions % (42 days)” value ([3]; level of zinc 80 mg/kg) was 25.09%. The “Foot pad lesions % (42 days)” value ([3]; mean of 40 and 80 mg/kg) was 22.0%.
